Series [1] is described as follows: Circulating cholesterol and body weight of immunized mice. The note with it: n = 10; mean±Std. It counts as in vivo. An excerpt: Immunization protocols Male apoE (−/−) mice (Jackson Laboratories) were housed in an animal facility accredited by the American Association of Accreditation of Laboratory Animal Care and kept on a 12-hour day/night cycle with unrestricted access to water and food. The Institutional Animal Care and Use Committee of Cedars-Sinai Medical Center approved the experimental protocols. […] Mice, maintained on normal chow diet, received subcutaneous primary immunization in the dorsal area between scapulas at 6-7 weeks of age, followed by a booster at 9 and 12 weeks of age. One week after last booster, diet was switched to high cholesterol chow (TD 88137, Harlan-Teklad) and continued until euthanasia at the age of 25 weeks. Separate groups of mice receiving PBS or cBSA/alum at the same immunization time-points served as control. Some mice were sacrificed at 8 or 13 weeks of age to assess immune response against p210.
The vaccine preparation consisted of the p210 peptide (Euro-Diagnostica AB, Sweden) conjugated to cationic bovine serum albumin (cBSA) as carrier using a method described previously^3;4. Alum was used as adjuvant and mixed with peptide/cBSA conjugated with 1:1 ratio in volume. Peptide conjugation was performed on the day of immunization and freshly mixed with alum just prior to each immunization. […]

The subject of series [2] is atherosclerosis. The settings on record: WO 02/080954, Table B; cited from earlier work.

Peptide text beside a SMILES is read from it.

In the case of `CC(C)C[C@H](NC(=O)[C@H](CC(=O)O)NC(=O)[C@H](Cc1ccccc1)NC(=O)[C@H](CO)NC(=O)[C@H](CCC(N)=O)NC(=O)[C@H](CCCCN)NC(=O)[C@@H](NC(=O)[C@@H](NC(=O)[C@@H](N)CCCCN)[C@@H](C)O)[C@@H](C)O)C(=O)N[C@@H](CO)C(=O)N[C@H](C(=O)N[C@@H](CCCCN)C(=O)N[C@@H](C)C(=O)N[C@@H](CCC(N)=O)C(=O)N[C@@H](Cc1ccc(O)cc1)C(=O)N[C@@H](CCCCN)C(=O)N[C@@H](CCCCN)C(=O)N[C@@H](CC(N)=O)C(=O)N[C@@H](CCCCN)C(=O)N[C@@H](Cc1c[nH]cn1)C(=O)O)C(C)C` [p210, KTTKQ SFDLS VKAQY KKNKH] (H-KTTKQSFDLSVKAQYKKNKH-OH), the Body weight entry in series [1] is on record as “without affecting”. As for “HTFLI YITEL LKKLQ STTVM (HTFLIYITELLKKLQSTTVM) [p301]”, the “percentage reduction of atherosclerosis” value in series [2] is listed as 55.2%. For the compound EEEML ENVSL VCPKD ATRFK [p1], the “percentage reduction of atherosclerosis” value in series [2] is reported as 31%. Consider “IEIGL EGKGF EPTLE ALFGK (IEIGLEGKGFEPTLEALFGK) [p45]”, for which the “percentage reduction of atherosclerosis” value in series [2] was 47.4%.
